One data set addresses HBV. The settings on record: ASO.
Another data set deals with APOL1. The conditions noted are these: ASO.

Where “and” joins values, the source holds several entries; their conditions need not be identical. Identical values can stand only once. After the bases stand the sugars from the 5' end (letter, count) and the backbone: PS all phosphorothioate, else s phosphorothioate and o phosphodiester by linkage. HELM strings list units from the 5' end as sugar, base in round brackets, then linkage (d deoxyribose, r ribose, m 2'-O-methyl, p phosphodiester). Methylation of C is not given here. [moe] = 2'-O-(2-methoxyethyl) (MOE); [cEt] = constrained ethyl (cEt); [sp] = phosphorothioate linkage; e = 2'-O-(2-methoxyethyl) (MOE); k = constrained ethyl (cEt); d = 2'-deoxy (DNA)

As to “RNA1{[moe](A)[sp].[moe](A)[sp].[moe](G)[sp].d(C)[sp].d(G)[sp].d(A)[sp].d(A)[sp].d(G)[sp].d(T)[sp].d(G)[sp].d(C)[sp].d(A)[sp].d(C)[sp].[cEt](A)[sp].[cEt](C)[sp].[cEt](G)}$$$$V2.0”, the target mRNA inhibition with HBV (HepG2, 0.07 µM) is 70% and 63%.
On the same count and under the same terms, under “RNA1{[moe](A)[sp].[moe](C)[sp].d(C)[sp].d(A)[sp].d(C)[sp].d(T)[sp].d(G)[sp].d(A)[sp].d(A)[sp].d(C)[sp].d(A)[sp].[moe](A)[sp].[moe](A)[sp].[moe](T)[sp].[moe](G)[sp].[moe](G)}$$$$V2.0” stands 43% and 44%.
Still for that read-out and setting: for “RNA1{[moe](C)[sp].[moe](G)[sp].[moe](T)[sp].[moe](G)[sp].d(C)[sp].d(A)[sp].d(G)[sp].d(A)[sp].d(G)[sp].d(G)[sp].d(T)[sp].d(G)[sp].d(A)[sp].[moe](A)[sp].[moe](G)[sp].[moe](C)}$$$$V2.0” the value was 46% and 44%; for “RNA1{[moe](C)[sp].[moe](C)[sp].[moe](A)[sp].[moe](A)[sp].[moe](T)[sp].[moe](T)[sp].d(T)[sp].d(A)[sp].d(T)[sp].d(G)[sp].d(C)[sp].d(C)[sp].d(T)[sp].d(A)[sp].d(C)[sp].[moe](A)[sp].[moe](G)}$$$$V2.0”, 13% and 20%; for “RNA1{[moe](G)[sp].[moe](A)[sp].d(A)[sp].d(G)[sp].d(T)[sp].d(C)[sp].d(C)[sp].d(A)[sp].d(C)[sp].d(C)[sp].d(A)[sp].[moe](C)[sp].[moe](G)[sp].[moe](A)[sp].[moe](G)[sp].[moe](T)[sp].[moe](C)}$$$$V2.0”, 66% and 49%.
On to “RNA1{[cEt](T)[sp].d(T)[sp].[cEt](T)[sp].d(A)[sp].[cEt](T)[sp].d(G)[sp].d(C)[sp].d(C)[sp].d(T)[sp].d(A)[sp].d(C)[sp].d(A)[sp].d(G)[sp].d(C)[sp].[moe](C)[sp].[moe](T)}$$$$V2.0”, for which the target mRNA inhibition with HBV (HepG2, 0.009375 µM) came to 12%; in the data set with HBV (HepG2, 0.01875 µM), 14%; with HBV (HepG2, 0.0375 µM) it was 32%; with HBV (HepG2, 0.075 µM), 47%; with HBV (HepG2, 0.15 µM), 62%; with HBV (HepG2, 0.3 µM), 77%.
Consider “RNA1{[moe](G)[sp].[moe](A)[sp].[moe](A)[sp].[moe](G)[sp].[moe](T)[sp].[moe](C)[sp].d(C)[sp].d(A)[sp].d(C)[sp].d(C)[sp].d(A)[sp].d(C)[sp].d(G)[sp].d(A)[sp].d(G)[sp].[moe](T)[sp].[moe](C)}$$$$V2.0”, for which the target mRNA inhibition in the data set with HBV (HepG2, 0.07 µM) worked out at 42%.
For the substance “RNA1{[moe](A)[sp].[moe](C)[sp].[moe](G)[sp].d(G)[sp].d(G)[sp].d(C)[sp].d(A)[sp].d(A)[sp].d(C)[sp].d(A)[sp].d(T)[sp].d(A)[sp].d(C)[sp].[cEt](C)[sp].[cEt](T)[sp].[cEt](T)}$$$$V2.0”, the target mRNA inhibition with HBV (HepG2, 0.07 µM) was 43% and 40%.
Regarding “RNA1{[moe](A)[sp].[moe](G)[sp].[moe](A)[sp].d(T)[sp].d(G)[sp].d(A)[sp].d(G)[sp].d(G)[sp].d(C)[sp].d(A)[sp].d(T)[sp].d(A)[sp].[moe](G)[sp].[moe](C)[sp].[moe](A)[sp].[moe](G)[sp].[moe](C)}$$$$V2.0”, in the data set with HBV (HepG2, 0.07 µM), the target mRNA inhibition is 69% and 63%.
Same read-out and setting: for “RNA1{[moe](G)[sp].[moe](A)[sp].[moe](G)[sp].d(A)[sp].d(A)[sp].d(G)[sp].d(T)[sp].d(C)[sp].d(C)[sp].d(A)[sp].d(C)[sp].d(C)[sp].d(A)[sp].[cEt](C)[sp].[cEt](G)[sp].[cEt](A)}$$$$V2.0” the value was 60% and 71%.
“GTATTTCTTGATGTGG (sugars k2 d4 e3 k2 d5, PS)” returned a target mRNA inhibition with APOL1 (A431, 2 µM) of 97%.
For the substance “CTTTAAACTCAGGTGA (sugars kkddddkekekkdddd, PS)”, the target mRNA inhibition with APOL1 (A431, 2 µM) was 70%.
In the data set with APOL1 (A431, 2 µM), “AAGCTTTAAACTCAGG (sugars kkddddkekekddddd, PS)” had a target mRNA inhibition of 48%.
On the same count and under the same terms, for “GTATTGTTTTTGTGGG (sugars kddddkekekeddddd, PS)” the value was 70%.
For “TTTGTAAGTGCAACCA (sugars kkddddekekeddddd, PS)”, the target mRNA inhibition was 29% in the data set with APOL1 (A431, 0.0156 µM); 59% with APOL1 (A431, 0.0625 µM); 83% in the data set with APOL1 (A431, 0.25 µM); 96% with APOL1 (A431, 1 µM); 97% in the data set with APOL1 (A431, 2 µM).
GTCATATCAGATGGGT (sugars k4 d9 k3, PS): the target mRNA inhibition with APOL1 (A431, 0.0625 µM) amounted to 52%; with APOL1 (A431, 0.25 µM) it was 77%; in the data set with APOL1 (A431, 1 µM) it was 91%.
For TGTGCTCAGCTATGGA (sugars k4 d9 k3, PS), the target mRNA inhibition in the data set with APOL1 (A431, 0.0625 µM) was 41% and 55%; in the data set with APOL1 (A431, 0.25 µM) it was 70% and 74%; with APOL1 (A431, 1 µM), 88% and 87%.
With AAGTCAGTACAGAGCA (sugars k4 d9 k3, PS), the target mRNA inhibition with APOL1 (A431, 0.0625 µM) was 52%; in the data set with APOL1 (A431, 0.25 µM), 79%; in the data set with APOL1 (A431, 1 µM), 89%.
On the same counts, the results for CTTCTTATGTTATCCT (sugars k4 d9 k3, PS) are 35%, 72% and 85%.
As to “GTTCTAACTCTTGGGC (sugars kekddddeekkddddd, PS)”, the target mRNA inhibition with APOL1 (A431, 2 µM) turned out to be 86%.
Still for that read-out and setting: for “GTTATATTTGATCCTC (sugars k2 d4 e4 k2 d4, PS)” the value was 69%.
Regarding TCCTTGCTGCACTGCC (sugars k4 d9 k3, PS), the target mRNA inhibition is 67% in the data set with APOL1 (A431, 0.0625 µM); 88% with APOL1 (A431, 0.25 µM); 95% with APOL1 (A431, 1 µM).
Turning to “GAAGATTGGCTCTGGC (sugars k2 d4 e3 k2 d5, PS)”, the target mRNA inhibition with APOL1 (A431, 2 µM) came out at 81%.
The same measure, in the same setting: under “GTTCTAACTCTTGGGC (sugars k3 d4 k3 e1 d5, PS)” stands 58%.
Still for that read-out and setting: for “GTTCAAAAGCAGCATT (sugars k2 d4 e3 k2 d5, PS)” the value was 86%.
TTTTCACCATAGCACG (sugars k4 d9 k3, PS): the target mRNA inhibition in the data set with APOL1 (A431, 0.0625 µM) is 33%; with APOL1 (A431, 0.25 µM) it was 63%; in the data set with APOL1 (A431, 1 µM) it was 85%.
In the data set with APOL1 (A431, 2 µM), “GTATTGCCAGCTAAGG (sugars kkddddkekekkdddd, PS)” displayed a target mRNA inhibition of 74%.
The same measure, in the same setting: for “GAGTATTGTTTTTGTG (sugars kkddddkekekddddd, PS)” the value was 90%; for “GGAATTATGGAATTGC (sugars kkkddddkekeddddd, PS)”, 55%.
Same read-out and setting: for “ACACATCATTGGGTTA (sugars k2 d4 e3 k2 d5, PS)” the value was 51%; for “ATGCTAATTTTCTGAC (sugars kkddddekekeddddd, PS)”, 95%; for “ATTCAGAATTTCCACT (sugars kkddddkekekddddd, PS)”, 76%.
ATTCCTGGGCAGTTCA (sugars k4 d9 k3, PS): the target mRNA inhibition with APOL1 (A431, 0.0625 µM) stood at 37%; with APOL1 (A431, 0.25 µM), 43%; in the data set with APOL1 (A431, 1 µM), 58%.
In the case of “GTTATGAAATTATTGG (sugars kkddddkdkdkddddd, PS)”, the target mRNA inhibition in the data set with APOL1 (A431, 2 µM) was 71%.

The record behind these values is the OligoGym collection.
